Laboratory results taken from EPA's ToxValDB 9.5 (doi:10.2903/j.efsa.2006.55r).
Values after ≈ are worked out from the molar mass of the structure shown.

Tests used:
Colinus virginianus = settings: acute, oral, mortality
Daphnia magna = settings: chronic/long-term; duration: 21 days; reproduction
Lepomis macrochirus = settings: acute; duration: 96 hours; mortality
Tagia sp. = settings: for LC50: acute, mortality
Anas platyrhynchos = settings: for LC50: short-term, oral, feed, mortality
Apis mellifera = settings: acute, duration: 48 hours, mortality
Rattus norvegicus = settings: for NOAEL: reproduction developmental
Plant = settings: not reported; no effects
Aphidius rhopalosiphi = assay: LR50; higher = less toxic; settings: not reported; mortality
Orius insidiosus = assay: LR50; higher = less toxic; settings: not reported; mortality

SMILES | LD50 (Colinus virginianus) [mg/kg-day] | NOEC (Daphnia magna) [mg/L] | LC50 (Lepomis macrochirus) [µg/mL] | LC50 (Tagia sp.; duration: 14 days) [mg/kg] | LC50 (Anas platyrhynchos) | LD50 (Apis mellifera; dermal) [µg/piece] | LD50 (Apis mellifera; oral, unspecified) [µg/piece] | LC50 (Colinus virginianus; diet) [mg/kg] | LOAEL (Rattus norvegicus; acute, oral, gavage, neurology) [mg/kg-day] | LD50 (Rattus norvegicus; acute, oral, mortality) [mg/kg-day] | NOAEL (Rattus norvegicus; body weight) [mg/kg-day] | NOAEL (Rattus norvegicus; oral, diet, mortality) [mg/kg-day] | NOAEL (Rattus norvegicus; reproduction) [mg/kg-day] | LEL (Plant) [g/ha] | LC50 (Tagia sp.) [mg/kg] | NOEC (Tagia sp.; chronic/long-term) [mg/kg] | NOEC (Anas platyrhynchos; reproductive) [mg/kg] | LR50 (Aphidius rhopalosiphi) [g/ha] | LR50 (Orius insidiosus) [g/ha]
CNC(=O)ON=C(C)SC [Methomyl] | 24.2 | 0.0016 | 0.62 (≈ 3.82 µM) | 19 | 658 mg/kg-day | – | – | – | – | – | – | – | – | – | – | – | – | – | –
CSC(C)=NOC(=O)N(C)SN(C)C(=O)ON=C(C)SC [Thiodicarb] | 2020 | – | 1.4 (≈ 3.95 µM) | – | > 5620 mg/kg | 3.1 | 0.153 | > 5620 | < 5 | 50 | 1 | 7 | 84 | 950 | 38.5 | 2 | 500 | 0.4 | 25.4
